Experimental data as given in ChEMBL document CHEMBL1201862, “PubChem BioAssay data set” (2004).
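A five-concentration, 48-hour dose response in 96-well plates underlies each endpoint, interpolated linearly between surrounding concentrations. GI50 is the concentration that inhibits growth by half.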 The source made the active and inactive calls. Cut-off read from the data, not from the text of the source: active = GI50 up to about 1.1 µM and inactive = higher.

Assays:
Test in all cases: growth of human tumour cells (NCI), 48 h
HL-60 = tested on: HL-60
SN12C = tested on: SN12C
SNB-75 = tested on: SNB-75
HCT-116 = tested on: HCT-116
TK-10 = tested on: TK-10
EKVX = tested on: EKVX
MOLT-4 = tested on: MOLT-4
CAKI-1 = tested on: CAKI-1
786-0 = tested on: 786-0
HOP-62 = tested on: HOP-62
KM12 = tested on: KM12
T47D = tested on: T47D
SK-MEL-28 = tested on: SK-MEL-28
NCI-H226 = tested on: NCI-H226
A498 = tested on: A498
HCT-15 = tested on: HCT-15
UACC-62 = tested on: UACC-62
MDA-MB-435 = tested on: MDA-MB-435
MDA-N = tested on: MDA-N
OVCAR-4 = tested on: OVCAR-4

SMILES	GI50 (HL-60)	GI50 (SN12C)	GI50 (SNB-75)	GI50 (HCT-116)	GI50 (TK-10)	GI50 (EKVX)	GI50 (MOLT-4)	GI50 (CAKI-1)	GI50 (786-0)	GI50 (HOP-62)	GI50 (KM12)	GI50 (T47D)	GI50 (SK-MEL-28)	GI50 (NCI-H226)	GI50 (A498)	GI50 (HCT-15)	GI50 (UACC-62)	GI50 (MDA-MB-435)	GI50 (MDA-N)	GI50 (OVCAR-4)
CC(C)(C(=O)N(C(=O)N1CCN(c2ccccc2)CC1)S(=O)(=O)c1ccccc1)c1ccc(Cl)cc1	24.8 µM (inactive)	52.4 µM (inactive)	77.1 µM (inactive)	17.7 µM (inactive)	61.4 µM (inactive)	13.5 µM (inactive)	3.33 µM (inactive)	34.4 µM (inactive)	55.2 µM (inactive)	27.5 µM (inactive)	19.3 µM (inactive)	29.2 µM (inactive)	> 100 µM (inactive)	52.4 µM (inactive)	18.6 µM (inactive)	7.94 µM	40.6 µM (inactive)	51.2 µM (inactive)	41.5 µM (inactive)	28.1 µM (inactive)
CCC(=O)c1ccc2[nH]c3c(C)c4c(O)cc(C)nc4c(C)c3c2c1	> 100 µM (inactive)		> 100 µM (inactive)	> 100 µM (inactive)	63.2 µM (inactive)	> 100 µM (inactive)	> 100 µM (inactive)	> 100 µM (inactive)	> 100 µM (inactive)	92 µM (inactive)	> 100 µM (inactive)	> 100 µM (inactive)	> 100 µM (inactive)	> 100 µM (inactive)	> 100 µM (inactive)	> 100 µM		> 100 µM (inactive)	> 100 µM (inactive)	> 100 µM (inactive)
Cc1ncc([N+](=O)[O-])n1CCNS(=O)(=O)CCCn1ncnc1[N+](=O)[O-]	> 100 µM (inactive)	> 100 µM (inactive)	> 100 µM (inactive)	> 100 µM (inactive)	> 100 µM (inactive)	> 100 µM (inactive)	> 100 µM (inactive)	> 100 µM (inactive)	> 100 µM (inactive)	> 100 µM (inactive)	> 100 µM (inactive)	> 100 µM (inactive)	> 100 µM (inactive)	> 100 µM (inactive)	> 100 µM (inactive)	> 100 µM	> 100 µM (inactive)	> 100 µM (inactive)	> 100 µM (inactive)	> 100 µM (inactive)
CC(C)C(OC(=O)c1cc(NC(=S)c2ccccc2)ccc1Cl)C(C)C	10.6 µM (inactive)	14.7 µM (inactive)	19.4 µM (inactive)	12.3 µM (inactive)	21.5 µM (inactive)	12.9 µM (inactive)	10.1 µM (inactive)	17.2 µM (inactive)	16.7 µM (inactive)	29.6 µM (inactive)	5.69 µM (inactive)	7.85 µM (inactive)	21.8 µM (inactive)	16 µM (inactive)	21.1 µM (inactive)	9.27 µM	11.8 µM (inactive)	14.7 µM (inactive)	16.6 µM (inactive)	17.6 µM (inactive)
CCOc1ccncc1[N+](=O)[O-]	> 100 µM (inactive)	> 100 µM (inactive)	> 100 µM (inactive)	> 100 µM (inactive)	> 100 µM (inactive)	> 100 µM (inactive)	> 100 µM (inactive)	> 100 µM (inactive)	> 100 µM (inactive)	> 100 µM (inactive)	> 100 µM (inactive)	> 100 µM (inactive)	> 100 µM (inactive)	> 100 µM (inactive)	> 100 µM (inactive)	> 100 µM	> 100 µM (inactive)	> 100 µM (inactive)	> 100 µM (inactive)	
Cc1nc2cc([N+](=O)[O-])ccc2c(NCCCN(C)C)c1C	28.8 µM (inactive)	11.4 µM (inactive)	20.7 µM (inactive)	4.68 µM (inactive)	23.5 µM (inactive)		1.91 µM (inactive)	20.3 µM (inactive)	10.4 µM (inactive)	10.9 µM (inactive)	6.05 µM (inactive)	4.09 µM (inactive)	50.5 µM (inactive)	5.08 µM (inactive)	14.9 µM (inactive)	14.7 µM	15.6 µM (inactive)	15.6 µM (inactive)	14.8 µM (inactive)	3.03 µM (inactive)
COc1ccc(N2C(=O)C3c4[nH]c5ccc(OC)cc5c4C4CCC(c5ccccc5)CC4C3C2=O)cc1 (stereo not given)	11.5 µM (inactive)	6.15 µM (inactive)	3.15 µM (inactive)	1.11 µM (active)	21.8 µM (inactive)	9.08 µM (inactive)	4.32 µM (inactive)	14.6 µM (inactive)	2.12 µM (inactive)	5.62 µM (inactive)	14.2 µM (inactive)	20.1 µM (inactive)	14.1 µM (inactive)	28.7 µM (inactive)	14.2 µM (inactive)	31.3 µM	15.1 µM (inactive)	16.4 µM (inactive)	18.4 µM (inactive)	4.21 µM (inactive)
CCOC(=O)c1c(Br)c(-c2ccc(Br)cc2)c(Br)n1C	6.59 µM (inactive)	25.2 µM (inactive)	3.18 µM (inactive)	6.32 µM (inactive)	39 µM (inactive)	8.99 µM (inactive)	16.4 µM (inactive)	17.1 µM (inactive)	20.5 µM (inactive)	19.9 µM (inactive)	10.2 µM (inactive)	10.5 µM (inactive)	15.3 µM (inactive)	15.5 µM (inactive)	18.2 µM (inactive)	13 µM	9.27 µM (inactive)	3.15 µM (inactive)	3.4 µM (inactive)	19.3 µM (inactive)
O=C(Nc1noc(-c2ccccc2)n1)c1ccccc1CNc1noc(-c2ccccc2)n1	> 100 µM (inactive)	> 100 µM (inactive)	> 100 µM (inactive)	> 100 µM (inactive)	> 100 µM (inactive)	76.7 µM (inactive)	> 100 µM (inactive)	> 100 µM (inactive)	> 100 µM (inactive)	> 100 µM (inactive)	> 100 µM (inactive)	> 100 µM (inactive)	> 100 µM (inactive)	> 100 µM (inactive)	> 100 µM (inactive)	> 100 µM	> 100 µM (inactive)	> 100 µM (inactive)	> 100 µM (inactive)	> 100 µM (inactive)
COc1c2c(cc3oc(C)cc(=O)c13)OC(=N)C(C(N)=O)C2CC(=O)c1ccc(N)cc1 (stereo not given)	> 100 µM (inactive)	> 100 µM (inactive)	> 100 µM (inactive)	> 100 µM (inactive)	> 100 µM (inactive)	> 100 µM (inactive)	> 100 µM (inactive)	> 100 µM (inactive)	> 100 µM (inactive)		> 100 µM (inactive)	> 100 µM (inactive)	> 100 µM (inactive)	> 100 µM (inactive)	> 100 µM (inactive)	> 100 µM	> 100 µM (inactive)	> 100 µM (inactive)	> 100 µM (inactive)	> 100 µM (inactive)
COC(=O)c1c(OC(C)=O)ccc2c1c1c(OC(C)=O)c3ccccc3c(OC(C)=O)c1n2Cc1cc(OC)cc(OC)c1	7.78 µM (inactive)	45.7 µM (inactive)	7.19 µM (inactive)	7.82 µM (inactive)	66.7 µM (inactive)	2.58 µM (inactive)	17.2 µM (inactive)	32.1 µM (inactive)	36.5 µM (inactive)	8.83 µM (inactive)	2.79 µM (inactive)	3.82 µM (inactive)	24.4 µM (inactive)	31.3 µM (inactive)	23.1 µM (inactive)	4.32 µM	4.41 µM (inactive)	6.64 µM (inactive)	5.12 µM (inactive)	4.41 µM (inactive)
C[Si](C)(c1ccccc1)[C@H]1CCCC=C1CCNC1c2ccccc2CCc2ccccc21	1.79 µM (inactive)	> 100 µM (inactive)	67.3 µM (inactive)	48.3 µM (inactive)	> 100 µM (inactive)	29.4 µM (inactive)	30 µM (inactive)	73.5 µM (inactive)	> 100 µM (inactive)	> 100 µM (inactive)	77.3 µM (inactive)	35.9 µM (inactive)	> 100 µM (inactive)	> 100 µM (inactive)	69.2 µM (inactive)	51.2 µM	61.4 µM (inactive)	76.2 µM (inactive)	70.5 µM (inactive)	41.5 µM (inactive)
COCC(=O)OC1CCn2c1nc1c2C(=O)C(C)=C(NC(C)=O)C1=O (stereo not given)	1.43 µM (inactive)	7.26 µM (inactive)	5.42 µM (inactive)	3.05 µM (inactive)	18.2 µM (inactive)	7.6 µM (inactive)	1.14 µM (inactive)	16.2 µM (inactive)	6.73 µM (inactive)	21.5 µM (inactive)	15.7 µM (inactive)	0.787 µM (active)	15.1 µM (inactive)	11.1 µM (inactive)	27.9 µM (inactive)	14.4 µM	3.27 µM (inactive)	1.89 µM (inactive)	1.85 µM (inactive)	1.85 µM (inactive)
C[N+]1(CCCl)CC[N+](C)(CCCl)CC1 (stereo not given)	28.8 µM (inactive)	> 100 µM (inactive)	42.1 µM (inactive)	> 100 µM (inactive)	> 100 µM (inactive)	> 100 µM (inactive)	83.6 µM (inactive)	> 100 µM (inactive)	> 100 µM (inactive)	> 100 µM (inactive)	> 100 µM (inactive)	> 100 µM (inactive)	> 100 µM (inactive)	> 100 µM (inactive)	> 100 µM (inactive)	> 100 µM	> 100 µM (inactive)	> 100 µM (inactive)	> 100 µM (inactive)	> 100 µM (inactive)
